How the values were obtained:
[1] = system: Diabrotica Balteata (Corn Root Worm); assay: Diabrotica balteata (Corn Root Worm); details: in Zea mays, 96 h, read-out: effect in at least one of the two categories (mortality or growth inhibition)
[2] = system: Euschistus heros (Neotropical Brown Stink Bug); assay: whole plant or invertebrate; type: in vivo; details: 120 h, application rate of 200 ppm, N2 nymphs on sprayed soybean leaves, 5 days after infestation, read-out: effect in at least one of the two categories (mortality or growth inhibition)
[3] = system: Myzus persicae (Green Peach Aphid); assay: whole plant or invertebrate; type: in vivo; details: 144 h, test rate of 24 ppm, systemic, roots of infested pea seedlings in test solution, 6 days
[4] = system: Myzus persicae (Green Peach Aphid); assay: whole plant or invertebrate; details: foliar, 144 h
[5] = system: Plutella xylostella (Diamond Back Moth); assay: whole plant or invertebrate; type: in vivo; details: 120 h, application rate of 200 ppm, L2 larvae on treated artificial diet, 5 days after infestation, read-out: effect in at least one of the two categories (mortality or growth inhibition)

For `CCSc1cc(OC2COC2)cnc1-c1nc2cc(C(F)(F)F)ncc2n1C` [Compound P2, 2-[3-ethylsulfanyl-5-(oxetan-3-yloxy)-2-pyridyl]-3-methyl-6-(trifluoromethyl)imidazo[4,5-c]pyridine], which mortality at 200 ppm [1] is on record?
The mortality at 200 ppm was at least 80%.

What about the percent effect (mortality or growth inhibition) at 200 ppm [2] of the same compound?
The percent effect (mortality or growth inhibition) at 200 ppm was at least 80%.

With `CCS(=O)(=O)c1cc(OCCS(C)(=O)=O)cnc1-c1nc2cc(C(F)(F)F)ncc2n1C` [Compound P7, 2-[3-ethylsulfonyl-5-(2-methylsulfonylethoxy)-2-pyridyl]-3-methyl-6-(trifluoromethyl)imidazo[4,5-c]pyridine] as the compound, how does the mortality at 24 ppm [3] read?
Its mortality at 24 ppm is at least 80%.

What about the mortality at 200 ppm [4] of the same compound?
Its mortality at 200 ppm is at least 80%.

What about the percent effect (mortality or growth inhibition) at 200 ppm [2] of the same compound?
The percent effect (mortality or growth inhibition) at 200 ppm was at least 80%.

`CCSc1cc(OC2(C)COC2)cnc1-c1nc2cc(C(F)(F)F)ncc2n1C` [Compound P14, 2-[3-ethylsulfanyl-5-(3-methyloxetan-3-yl)oxy-2-pyridyl]-3-methyl-6-(trifluoromethyl)imidazo[4,5-c]pyridine] was tested. Which mortality at 200 ppm [1] did it give?
The mortality at 200 ppm was at least 80%.

And the percent effect (mortality or growth inhibition) at 200 ppm [5]?
The percent effect (mortality or growth inhibition) at 200 ppm was at least 80%.

How did the mortality at 200 ppm [1] turn out when `C#CCOc1cnc(-c2nc3cc(C(F)(F)F)ncc3n2C)c(SCC)c1` [Compound P17, 2-(3-ethylsulfanyl-5-prop-2-ynoxy-2-pyridyl)-3-methyl-6-(trifluoromethyl)imidazo[4,5-c]pyridine] was run?
The mortality at 200 ppm was at least 80%.

What does the source list for `CCSc1cc(OCC2CC2)cnc1-c1nc2cc(C(F)(F)F)ncc2n1C` [Compound P23, 2-[5-(cyclopropylmethoxy)-3-ethylsulfanyl-2-pyridyl]-3-methyl-6-(trifluoromethyl)imidazo[4,5-c]pyridine]?
mortality at 200 ppm [1]: ≥ 80%; mortality at 200 ppm [4]: ≥ 80%; percent effect (mortality or growth inhibition) at 200 ppm [5]: ≥ 80%

What does the source list for `CCSc1cc(OCC(C)(C)C)cnc1-c1nc2cc(C(F)(F)F)ncc2n1C` [Compound P25, 2-[5-(2,2-dimethylpropoxy)-3-ethylsulfanyl-2-pyridyl]-3-methyl-6-(trifluoromethyl)imidazo[4,5-c]pyridine]?
mortality at 200 ppm [4]: ≥ 80%; percent effect (mortality or growth inhibition) at 200 ppm [5]: ≥ 80%

With `CCS(=O)(=O)c1cc(OC(SC)C(=O)N(C)C)cnc1-c1nc2cc(C(F)(F)F)ncc2n1C` (stereo not shown) [Compound P36, 2-[[5-ethylsulfonyl-6-[3-methyl-6-(trifluoromethyl)imidazo[4,5-c]pyridin-2-yl]-3-pyridyl]oxy]-N,N-dimethyl-2-methylsulfanyl-acetamide] as the compound, how does the percent effect (mortality or growth inhibition) at 200 ppm [2] read?
The percent effect (mortality or growth inhibition) at 200 ppm was at least 80%.

What does the source list for `CCS(=O)(=O)c1cc(OC(SC)C(=O)NC)cnc1-c1nc2cc(C(F)(F)F)ncc2n1C` (stereo not shown) [Compound P37, 2-[[5-ethylsulfonyl-6-[3-methyl-6-(trifluoromethyl)imidazo[4,5-c]pyridin-2-yl]-3-pyridyl]oxy]-N-methyl-2-methylsulfanyl-acetamide]?
mortality at 200 ppm [4]: ≥ 80%; percent effect (mortality or growth inhibition) at 200 ppm [2]: ≥ 80%

With `CCS(=O)(=O)c1cc(OC(C(=O)N(C)C)S(C)(=O)=O)cnc1-c1nc2cc(C(F)(F)F)ncc2n1C` (stereo not shown) [Compound P38, 2-[[5-ethylsulfonyl-6-[3-methyl-6-(trifluoromethyl)imidazo[4,5-c]pyridin-2-yl]-3-pyridyl]oxy]-N,N-dimethyl-2-methylsulfonyl-acetamide] as the compound, how does the mortality at 24 ppm [3] read?
The mortality at 24 ppm was at least 80%.

With `CCSc1cc(OC(C#N)(CC)CC)cnc1-c1nc2cc(C(F)(F)F)ncc2n1C` [Compound P43, 2-ethyl-2-[[5-ethylsulfanyl-6-[3-methyl-6-(trifluoromethyl)imidazo[4,5-c]pyridin-2-yl]-3-pyridyl]oxy]butanenitrile] as the compound, how does the percent effect (mortality or growth inhibition) at 200 ppm [2] read?
The percent effect (mortality or growth inhibition) at 200 ppm was at least 80%.

With `CCS(=O)(=O)c1cc(OC(C)(C)COC)cnc1-c1nc2cc(C(F)(F)F)ncc2n1C` [Compound P48, 2-[3-ethylsulfonyl-5-(2-methoxy-1,1-dimethyl-ethoxy)-2-pyridyl]-3-methyl-6-(trifluoromethyl)imidazo[4,5-c]pyridine] as the compound, how does the mortality at 24 ppm [3] read?
Its mortality at 24 ppm is at least 80%.

And the mortality at 200 ppm [4]?
The mortality at 200 ppm was at least 80%.

What about the percent effect (mortality or growth inhibition) at 200 ppm [5] of the same compound?
The percent effect (mortality or growth inhibition) at 200 ppm was at least 80%.

`CCS(=O)(=O)c1cc(OC(C)(C)CS(C)(=O)=O)cnc1-c1nc2cc(C(F)(F)F)ncc2n1C` [Compound P49, 2-[5-(1,1-dimethyl-2-methylsulfonyl-ethoxy)-3-ethylsulfonyl-2-pyridyl]-3-methyl-6-(trifluoromethyl)imidazo[4,5-c]pyridine] was tested. Which mortality at 24 ppm [3] did it give?
The mortality at 24 ppm was at least 80%.

And the mortality at 200 ppm [4]?
The mortality at 200 ppm was at least 80%.

What about the percent effect (mortality or growth inhibition) at 200 ppm [5] of the same compound?
Its percent effect (mortality or growth inhibition) at 200 ppm is at least 80%.

What about the percent effect (mortality or growth inhibition) at 200 ppm [2] of the same compound?
Its percent effect (mortality or growth inhibition) at 200 ppm is at least 80%.

Which results are given for `CCS(=O)(=O)c1cc(OCC(=O)N(C)C)cnc1-c1nc2cc(C(F)(F)F)ncc2n1C` [Compound P51, 2-[[5-ethylsulfonyl-6-[3-methyl-6-(trifluoromethyl)imidazo[4,5-c]pyridin-2-yl]-3-pyridyl]oxy]-N,N-dimethyl-acetamide]?
mortality at 24 ppm [3]: ≥ 80%; percent effect (mortality or growth inhibition) at 200 ppm [2]: ≥ 80%

Which results are given for `CCS(=O)(=O)c1cc(OCC2(C)COC2)cnc1-c1nc2cc(C(F)(F)F)ncc2n1C` [Compound P54, 2-[3-ethylsulfonyl-5-[(3-methyloxetan-3-yl)methoxy]-2-pyridyl]-3-methyl-6-(trifluoromethyl)imidazo[4,5-c]pyridine]?
mortality at 24 ppm [3]: ≥ 80%; mortality at 200 ppm [4]: ≥ 80%; percent effect (mortality or growth inhibition) at 200 ppm [2]: ≥ 80%

What does the source list for `CCS(=O)(=O)c1cc(OC(C)(C)C(=O)NC)cnc1-c1nc2cc(C(F)(F)F)ncc2n1C` [Compound P55, 2-[[5-ethylsulfonyl-6-[3-methyl-6-(trifluoromethyl)imidazo[4,5-c]pyridin-2-yl]-3-pyridyl]oxy]-N,2-dimethyl-propanamide]?
mortality at 24 ppm [3]: ≥ 80%; mortality at 200 ppm [4]: ≥ 80%

With `CCS(=O)(=O)c1cc(OC(C)(C)C(=O)N(C)C)cnc1-c1nc2cc(C(F)(F)F)ncc2n1C` [Compound P59, 2-[[5-ethylsulfonyl-6-[3-methyl-6-(trifluoromethyl)imidazo[4,5-c]pyridin-2-yl]-3-pyridyl]oxy]-N,N,2-trimethyl-propanamide] as the compound, how does the mortality at 24 ppm [3] read?
Its mortality at 24 ppm is at least 80%.

How did the mortality at 200 ppm [4] turn out when `CCS(=O)(=O)c1cc(OC/C(C)=N/OC)cnc1-c1nc2cc(C(F)(F)F)ncc2n1C` [Compound P64, 1-[[5-ethylsulfonyl-6-[3-methyl-6-(trifluoromethyl)imidazo[4,5-c]pyridin-2-yl]-3-pyridyl]oxy]-N-methoxy-propan-2-imine] was run?
Its mortality at 200 ppm is at least 80%.

And the percent effect (mortality or growth inhibition) at 200 ppm [5]?
Its percent effect (mortality or growth inhibition) at 200 ppm is at least 80%.

And the percent effect (mortality or growth inhibition) at 200 ppm [2]?
The percent effect (mortality or growth inhibition) at 200 ppm was at least 80%.

How did the percent effect (mortality or growth inhibition) at 200 ppm [2] turn out when `CCSc1cc(OC(C)(C)C(N)=O)cnc1-c1nc2cc(C(F)(F)F)ncc2n1C` [Compound P77, 2-[[5-ethylsulfanyl-6-[3-methyl-6-(trifluoromethyl)imidazo[4,5-c]pyridin-2-yl]-3-pyridyl]oxy]-2-methyl-propanamide] was run?
Its percent effect (mortality or growth inhibition) at 200 ppm is at least 80%.

How did the mortality at 24 ppm [3] turn out when `CCS(=O)(=O)c1cc(OCS(C)(=N)=O)cnc1-c1nc2cc(C(F)(F)F)ncc2n1C` (stereo not shown) [Compound P80, [5-ethylsulfonyl-6-[3-methyl-6-(trifluoromethyl)imidazo[4,5-c]pyridin-2-yl]-3-pyridyl]oxymethyl-imino-methyl-oxo-$|^6-sulfane] was run?
Its mortality at 24 ppm is at least 80%.

What about the mortality at 200 ppm [4] of the same compound?
The mortality at 200 ppm was at least 80%.

What about the percent effect (mortality or growth inhibition) at 200 ppm [2] of the same compound?
Its percent effect (mortality or growth inhibition) at 200 ppm is at least 80%.

For `CCS(=O)(=O)c1cc(OCc2cc(C3CC3)no2)cnc1-c1nc2cc(C(F)(F)F)ncc2n1C` [Compound P83, 3-cyclopropyl-5-[[5-ethylsulfonyl-6-[3-methyl-6-(trifluoromethyl)imidazo[4,5-c]pyridin-2-yl]-3-pyridyl]oxymethyl]isoxazole], which mortality at 200 ppm [1] is on record?
Its mortality at 200 ppm is at least 80%.

What about the percent effect (mortality or growth inhibition) at 200 ppm [5] of the same compound?
Its percent effect (mortality or growth inhibition) at 200 ppm is at least 80%.

And the percent effect (mortality or growth inhibition) at 200 ppm [2]?
The percent effect (mortality or growth inhibition) at 200 ppm was at least 80%.

How did the mortality at 200 ppm [1] turn out when `CCS(=O)(=O)c1cc(OS(=O)(=O)C(F)F)cnc1-c1nc2cc(C(F)(F)F)ncc2n1C` [Compound P91, [5-ethylsulfonyl-6-[3-methyl-6-(trifluoromethyl)imidazo[4,5-c]pyridin-2-yl]-3-pyridyl] difluoromethanesulfonate] was run?
The mortality at 200 ppm was at least 80%.

For `CCS(=O)(=O)c1cc(OS(C)(=O)=O)cnc1-c1nc2cc(C(F)(F)F)ncc2n1C` [Compound P93, [5-ethylsulfonyl-6-[3-methyl-6-(trifluoromethyl)imidazo[4,5-c]pyridin-2-yl]-3-pyridyl] methanesulfonate], which mortality at 200 ppm [4] is on record?
The mortality at 200 ppm was at least 80%.

And the percent effect (mortality or growth inhibition) at 200 ppm [5]?
Its percent effect (mortality or growth inhibition) at 200 ppm is at least 80%.

For `CCS(=O)(=O)c1cc(OCc2ccccc2)cnc1-c1nc2cc(C(F)(F)F)ncc2n1C` [Compound P94, 2-(5-benzyloxy-3-ethylsulfonyl-2-pyridyl)-3-methyl-6-(trifluoromethyl)imidazo[4,5-c]pyridine], which mortality at 200 ppm [1] is on record?
Its mortality at 200 ppm is at least 80%.

For `C=CCOc1cnc(-c2nc3cc(C(F)(F)F)ncc3n2C)c(SCC)c1` [Compound P95, 2-(5-allyloxy-3-ethylsulfanyl-2-pyridyl)-3-methyl-6-(trifluoromethyl)imidazo[4,5-c]pyridine], which mortality at 200 ppm [1] is on record?
The mortality at 200 ppm was at least 80%.

With `CCS(=O)(=O)c1cc(OCCS(C)(=O)=O)ccc1-c1nc2cc(C(F)(F)F)ncc2n1C` [Compound P102, 2-[2-ethylsulfonyl-4-(2-methylsulfonylethoxy)phenyl]-3-methyl-6-(trifluoromethyl)imidazo[4,5-c]pyridine] as the compound, how does the mortality at 24 ppm [3] read?
Its mortality at 24 ppm is at least 80%.

What about the mortality at 200 ppm [4] of the same compound?
Its mortality at 200 ppm is at least 80%.

What about the percent effect (mortality or growth inhibition) at 200 ppm [2] of the same compound?
Its percent effect (mortality or growth inhibition) at 200 ppm is at least 80%.

`CCS(=O)(=O)c1cc(OC(F)(F)CBr)cnc1-c1nc2cc(C(F)(F)F)ncc2n1C` [Compound P109, 2-[5-(2-bromo-1,1-difluoro-ethoxy)-3-ethylsulfonyl-2-pyridyl]-3-methyl-6-(trifluoromethyl)imidazo[4,5-c]pyridine] was tested. Which percent effect (mortality or growth inhibition) at 200 ppm [5] did it give?
Its percent effect (mortality or growth inhibition) at 200 ppm is at least 80%.

— patent publication US20200216441A1, “PESTICIDALLY ACTIVE HETEROCYCLIC DERIVATIVES WITH SULFUR CONTAINING SUBSTITUENTS” (SYNGENTA PARTICIPATIONS AG, priority 2017, published 2020)
